What all share (format): biochemical
The target of experiment [1] is T1, h-CAXII (Homo sapiens, UniProt O43570).
T1 construct: His (N); host or cells: HEK 293 T
Description: Inhibition assay for carbonic anhydrase XII. The following applies: for IC50: n = 3, read-out: CAXII IC50 (µM) ± SEM. As to the method:
(§1) Expression of enzyme protein was done according to previously reported protocol. Briefly, transfection was carried out for CA-II, IX, and XII by using vectors pCMV3-N-His, pCMV3-SP-HIS-ORF, and pCMV3-N-His obtained from Sino Biologicals Inc., respectively. […] When cells gained about 80–90% confluency, they were washed twice with PBS and transfected with 0.2 µg plasmid solution. Cells were incubated for 6 h in 5% CO2 incubator, followed by the addition of fresh growth media. Cells were again incubated for 24 h. Hygromycin B (0.2 mg/mL) was used as a selection antibiotic for transfected cells. Cells were harvested after five days and lysed. Then desired proteins were purified via Ni–NTA resin using imidazole as affinity. SDS PAGE was carried out to confirm the molecular weight of purified protein.
(§2) The CA isozymes inhibition assay was performed according to the reported method after some modifications. Assay buffer was prepared that contained 50 mM tris-sulfate, 0.1 mM ZnCl2, and pH was adjusted at 7.6. Initially, 60 µL assay buffer was added in each well of 96 wells plate, 10 µL test compound (final concentration 100 µM), and followed by the addition of 10 µL working enzyme solution. The reaction mixture was incubated for 10 min at 37 °C. […] Then 20 µL of the substrate (6 mM) was added to the reaction mixture to initiate the reaction. The reaction mixture was incubated at 37 °C for 30 min, and absorbance was measured again. […] Results were reported as the mean of triplicate experiments (± SEM). The % inhibition was calculated by following the formula. Inhibition%=100-ODtestcompound/ODcontrol×100

In experiment [2] the target is T2, b-TNAP (Bos taurus, UniProt P09487).
T2 sequence (P09487 18-524): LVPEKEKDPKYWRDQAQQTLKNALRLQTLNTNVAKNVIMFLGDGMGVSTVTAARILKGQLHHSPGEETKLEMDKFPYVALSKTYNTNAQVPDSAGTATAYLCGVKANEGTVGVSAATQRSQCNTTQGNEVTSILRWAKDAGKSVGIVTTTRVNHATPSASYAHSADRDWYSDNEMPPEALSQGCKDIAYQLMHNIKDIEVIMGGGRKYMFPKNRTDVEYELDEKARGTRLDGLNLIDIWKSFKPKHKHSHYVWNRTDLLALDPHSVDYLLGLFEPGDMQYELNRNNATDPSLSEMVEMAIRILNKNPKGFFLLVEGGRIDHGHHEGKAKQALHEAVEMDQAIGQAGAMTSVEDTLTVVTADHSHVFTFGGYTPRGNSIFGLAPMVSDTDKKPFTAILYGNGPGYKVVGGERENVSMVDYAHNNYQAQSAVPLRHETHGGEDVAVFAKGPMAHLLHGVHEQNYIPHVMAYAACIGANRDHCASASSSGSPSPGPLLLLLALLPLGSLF
Description: Alkaline phosphatase inhibition assay (b-TNAP, p-NPP substrate). The following applies: for IC50: n = 3, read-out: b-TNAP IC50 (µM) ± SEM; for inhibition at 100 µM: read-out: b-TNAP % Inhibition. The procedure:
The assay was based on previously reported protocol. […] All the solutions were made in assay buffer comprising Tris-HCl (50 mM), ZnCl2 (0.1 mM) and MgCl2 (5 mM) and pH was adjusted at 9.5. […] Assay was started by adding 70 μL of assay buffer in each well of 96 wells flat bottom clear microplate, followed by adding 10 μL of test compound and 10 μL of working enzyme solution. The reaction mixture was incubated at 37 °C for 10 min and absorbance was measured by a microplate reader (Bio-[…], Instruments, Inc. USA) at 405 nm. The reaction was started by adding 10 μL of 5 mM p-NPP (para-nitrophenolphosphate) as substrate. […] Following formula was used to calculate the percentage of inhibition of test compounds.

For experiment [3], the target named is T3, h-CAIX (Homo sapiens, UniProt Q16790).
T3 construct: His (N); host or cells: HEK 293 T
Description: Inhibition assay for carbonic anhydrase IX. The following applies: for IC50: n = 3, read-out: CAIX IC50 (µM) ± SEM. As to the method:
as §1, §2

Experiment [4] deals with T4, h-CAII (Homo sapiens, UniProt P00918).
T4 construct: His (N); host or cells: HEK 293 T
Description: Inhibition assay for carbonic anhydrase II. The following applies: for IC50: n = 3, read-out: CAII IC50 (µM) ± SEM. The procedure:
as §1, §2

Experiment [5] concerns the target c-IAP (Bos taurus, UniProt P19111). Description: Alkaline phosphatase inhibition assay (c-IAP, p-NPP substrate). As to the method:
[1, 8]-Naphthyridine derivatives were screened for inhibitor potential towards b-TNAP and c-IAP. The assay was based on previously reported protocol. […]. All the solutions were made in assay buffer comprising Tris–HCl (50 mM), ZnCl2 (0.1 mM) and MgCl2 (5 mM) and pH was adjusted at 9.5. Working solutions of both enzymes were prepared in assay buffer containing 50% of glycerol. The final concentration of b-TNAP and c-IAP were kept at 0.025 U/mL and 0.05 U/mL, respectively. Assay was started by adding 70 µL of assay buffer in each well of 96 wells flat bottom clear microplate, followed by adding 10 µL of test compound and 10 µL of working enzyme solution. The reaction mixture was incubated at 37 °C for 10 min and absorbance was measured by a microplate reader (Bio-TekELx 800™, Instruments, Inc. USA) at 405 nm. The reaction was started by adding 10 µL of 5 mM p-NPP (para-nitrophenolphosphate) as substrate. […]. Following formula was used to calculate the percentage of inhibition of test compounds. Inhibition%=100-ODtestcompound/ODcontrol×100

Where [6] appears, read: 100 µM final concentration of compound.

Usually IC50 stands for the midpoint of a concentration-inhibition curve. As a reminder, the inhibition is the share of the control response that was lost under treatment.

Each structure is given as a SMILES string. “And” between values parts separate entries of the source, which are not always exact repeats. Equal entries are not always repeated. Where two headings read alike, the source gives them in different places.

Chain of c-IAP (P19111 20-506): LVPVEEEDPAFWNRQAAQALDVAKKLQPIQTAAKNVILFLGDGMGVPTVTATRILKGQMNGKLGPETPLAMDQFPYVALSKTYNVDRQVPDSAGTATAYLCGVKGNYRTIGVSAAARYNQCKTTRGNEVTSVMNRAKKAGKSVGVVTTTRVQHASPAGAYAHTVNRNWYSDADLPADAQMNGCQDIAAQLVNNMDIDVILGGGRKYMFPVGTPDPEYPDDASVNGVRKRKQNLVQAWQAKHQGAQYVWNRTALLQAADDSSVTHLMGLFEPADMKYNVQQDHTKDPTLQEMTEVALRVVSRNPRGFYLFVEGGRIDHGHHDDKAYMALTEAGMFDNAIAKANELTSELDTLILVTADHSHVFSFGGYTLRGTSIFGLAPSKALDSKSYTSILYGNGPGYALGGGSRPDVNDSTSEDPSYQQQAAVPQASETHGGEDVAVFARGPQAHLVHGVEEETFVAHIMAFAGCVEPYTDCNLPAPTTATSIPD
T1 sequence (O43570 25-354): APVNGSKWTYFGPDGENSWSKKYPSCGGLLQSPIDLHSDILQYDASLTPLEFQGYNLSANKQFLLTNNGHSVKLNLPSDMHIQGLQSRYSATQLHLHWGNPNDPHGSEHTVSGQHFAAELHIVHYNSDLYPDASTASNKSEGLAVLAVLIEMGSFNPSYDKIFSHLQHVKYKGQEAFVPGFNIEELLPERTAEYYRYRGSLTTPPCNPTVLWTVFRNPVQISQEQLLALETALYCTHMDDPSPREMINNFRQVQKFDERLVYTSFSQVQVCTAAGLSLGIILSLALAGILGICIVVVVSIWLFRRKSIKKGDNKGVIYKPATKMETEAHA

Regarding `c1ccc(-c2cc3cccnc3n3cccc23)cc1` [Compound 1a], the half-maximal inhibitory concentration (IC50) in experiment [1] worked out at 0.32 ± 0.07 µM; in experiment [2], 0.38 ± 0.09 µM; in experiment [3] it was 0.86 ± 0.47 µM; in experiment [4] it was 1.28 ± 0.16 µM.
For `CC(C)(C)c1ccc(-c2cc3cccnc3n3cccc23)cc1` [Compound 1b], the IC50 in experiment [1] is 1.51 ± 0.72 µM; in experiment [2], 0.122 µM and 0.12 µM; in experiment [4], 1.26 ± 0.44 µM. The “Times more potent as compared to Levamisole (standard inhibitor of TNAP)” value in experiment [2] (ratio of IC50 values) came to 160 times.
For the compound `Fc1ccc(-c2cc3cccnc3n3cccc23)cc1` [Compound 1c], the IC50 in experiment [1] turned out to be 0.96 ± 0.28 µM; in experiment [2], 1.01 ± 0.31 µM; in experiment [3] it was 0.7 ± 0.27 µM; in experiment [4], 0.9 ± 0.5 µM.
Turning to `Cc1ccc(-c2cc3cccnc3n3cccc23)cc1` [Compound 1d], in experiment [1], the “Activity against CA-XII in words” value is “marked activity” and the half-maximal inhibitory concentration (IC50) came to 2.4 ± 0.98 µM. In addition, the inhibition at 100 µM in experiment [2] is under 30%. Further, in experiment [3], the “Activity against CA-IX in words” value is recorded as “marked activity” and the IC50 was 1.36 ± 0.48 µM. Also, the “Activity against CA-II in words” value in experiment [4] was “inactive”.
In the case of `CCCCc1cc2cccnc2n2cccc12` [Compound 1e], the IC50 in experiment [1] came out at 0.51 ± 0.41 µM; in experiment [2] it was 0.32 ± 0.11 µM; in experiment [3], 1.61 ± 0.26 µM; in experiment [4], 0.44 ± 0.19 µM.
In the case of `COc1ccc(-c2cc3cccnc3n3cccc23)cc1` [Compound 1f], the half-maximal inhibitory concentration (IC50) in experiment [1] was found to be 4.3 ± 2.2 µM; in experiment [2], 0.14 ± 0.12 µM; in experiment [3], 0.99 ± 0.12 µM.
With `COc1cccc(-c2cc3cccnc3n3cccc23)c1` [Compound 1g], the half-maximal inhibitory concentration (IC50) in experiment [1] stood at 3.05 ± 0.92 µM; in experiment [2], 0.63 ± 0.47 µM; in experiment [3], 0.11 ± 0.03 µM; in experiment [4], 0.1 ± 0.04 µM.
For the compound `COc1ccc(-c2cc3cccnc3n3cccc23)c(C)c1` [Compound 1h], the half-inhibitory concentration (IC50) in experiment [1] was 0.8 ± 0.69 µM; in experiment [3] it was 0.74 ± 0.51 µM; in experiment [4], 1.46 ± 0.96 µM. The “Activity against b-TNAP in words” value in experiment [2] is on record as “loss of activity”. Also, the inhibition at 100 µM came to 33% in experiment [2] (setting [6]) and 37% in experiment [5] (read-out: c-IAP % Inhibition). In experiment [5], the “Activity against c-IAP in words” value was “complete loss of activity”.
Consider `Cc1cccc(-c2cc3cccnc3n3cccc23)c1` [Compound 1i], for which, in experiment [1], the “Activity against CA-XII in words” value is “significant activity” and the half-maximal inhibitory concentration (IC50) was determined as 0.46 ± 0.12 µM. Besides, in experiment [2], the “Activity against b-TNAP in words” value is recorded as “loss of activity” and the inhibition at 100 µM was under 30%. In experiment [3], the “Activity against CA-IX in words” value was “significant activity” and the IC50 worked out at 0.87 ± 0.51 µM. In experiment [4], the “Activity against CA-II in words” value was “inactive”.
Take `Fc1ccccc1-c1cc2cccnc2n2cccc12` [Compound 1j]: the IC50 in experiment [1] was determined as 0.51 ± 0.26 µM; in experiment [3] it was 1.65 ± 0.98 µM; in experiment [4], 2.14 ± 0.3 µM. Moreover, the “Activity against b-TNAP in words” value in experiment [2] was “loss of activity”. The inhibition at 100 µM in experiment [2] was under 20%.
Take `c1cnc2c(c1)cc(-c1ccsc1)c1cccn12` [Compound 1k]: the 50% inhibitory concentration (IC50) was 1.8 ± 0.42 µM in experiment [1], 0.36 ± 0.07 µM in experiment [2] and 1.63 ± 0.55 µM in experiment [4]. Also, the CAIX % inhibition in experiment [3] (setting [6]) is reported as 35.1%. This compound also had an inhibition at 100 µM in experiment [3] (setting [6]) of under 50%.
As to `c1cnc2c(c1)cc(C1CCCCC1)c1cccn12` [Compound 1l], the IC50 came to 1.5 ± 0.31 µM in experiment [1], 0.24 ± 0.06 µM in experiment [2], 3.2 ± 1.52 µM in experiment [3] and 1.99 ± 0.71 µM in experiment [4].
`N[C@@H](Cc1ccccc1)C(=O)O` [L-phenyl alanine, reference compound]: in experiment [5] (n = 3, read-out: c-IAP IC50 (µM) ± SEM), the half-maximal inhibitory concentration (IC50) was 80.21 ± 0.001 µM.
With `c1ccc([C@H]2CN3CCSC3=N2)cc1` [Levamisole, reference compound], the concentration for half-maximal inhibition (IC50) in experiment [2] turned out to be 19.21 ± 0.001 µM.

These data come from paper PMC10599030, “[1, 8]-Naphthyridine derivatives as dual inhibitor of alkaline phosphatase and carbonic anhydrase” (BMC Chemistry, 2023).
